Measured values: patent US20090306201A1, “SELECTIVE INHIBITORS FOR TRANSFERASES” (University of Medicine and Dentistry of New Jersey, priority 2006, published 2009)
Counter-ions that a name gives are not always drawn. Like-named read-outs stand apart in the source and are kept apart here.

Assays:
G9a = target: T1, G9a (Homo sapiens, UniProt Q96KQ7); experiment: HKMT-inhibitor (HMT) assay, G9a; assay type: biochemical, Mammalian; conditions: recombinant HKMT, [3H]SAM, histone octamers or oligonucleosomes, average of duplicate
T1 construct: made in house
T1 sequence (Q96KQ7 1-1210): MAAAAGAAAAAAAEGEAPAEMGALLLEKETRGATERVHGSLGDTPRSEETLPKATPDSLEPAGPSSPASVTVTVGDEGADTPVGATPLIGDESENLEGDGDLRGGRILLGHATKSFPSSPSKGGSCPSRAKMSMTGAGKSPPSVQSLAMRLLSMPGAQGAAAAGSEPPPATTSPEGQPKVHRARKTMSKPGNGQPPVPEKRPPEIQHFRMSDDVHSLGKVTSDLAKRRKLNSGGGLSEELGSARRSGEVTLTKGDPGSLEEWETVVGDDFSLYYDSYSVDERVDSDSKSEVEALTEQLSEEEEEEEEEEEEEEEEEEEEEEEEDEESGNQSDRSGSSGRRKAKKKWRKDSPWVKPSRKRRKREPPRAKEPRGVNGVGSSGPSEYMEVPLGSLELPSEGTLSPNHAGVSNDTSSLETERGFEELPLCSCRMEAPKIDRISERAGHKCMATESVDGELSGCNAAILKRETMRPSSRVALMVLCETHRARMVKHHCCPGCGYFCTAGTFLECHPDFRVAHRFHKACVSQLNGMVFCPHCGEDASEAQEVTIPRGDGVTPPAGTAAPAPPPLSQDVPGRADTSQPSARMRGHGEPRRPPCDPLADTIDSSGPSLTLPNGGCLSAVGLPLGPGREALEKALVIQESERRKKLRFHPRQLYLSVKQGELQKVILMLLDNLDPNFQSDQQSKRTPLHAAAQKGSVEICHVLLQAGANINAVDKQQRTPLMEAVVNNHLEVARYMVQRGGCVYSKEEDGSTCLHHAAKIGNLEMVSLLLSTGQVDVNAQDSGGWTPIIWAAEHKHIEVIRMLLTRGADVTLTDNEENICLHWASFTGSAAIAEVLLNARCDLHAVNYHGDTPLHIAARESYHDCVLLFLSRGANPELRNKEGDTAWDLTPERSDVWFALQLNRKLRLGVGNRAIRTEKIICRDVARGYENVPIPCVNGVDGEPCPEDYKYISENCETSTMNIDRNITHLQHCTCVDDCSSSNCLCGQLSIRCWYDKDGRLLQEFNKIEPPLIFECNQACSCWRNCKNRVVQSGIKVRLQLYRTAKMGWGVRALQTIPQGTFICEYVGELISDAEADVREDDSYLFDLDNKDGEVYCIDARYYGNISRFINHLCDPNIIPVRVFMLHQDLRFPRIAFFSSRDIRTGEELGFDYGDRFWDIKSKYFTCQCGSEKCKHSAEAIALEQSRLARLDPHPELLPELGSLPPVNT
Method: (§1) Compounds were initially screened for their ability to inhibit the activity of various lysine methyltransferases in vitro using a biochemical HMT-assay. Mammalian HKMTs were produced and purified as recombinant affinity-tagged proteins using a bacterial or baculovirus expression system.
(§2) The HKMT-inhibitor assay was as follows: In a final reaction volume of 25 μl, 50-100 ng recombinant HKMT protein was incubated at 30° C. for 60 minutes in a reaction buffer containing 50 mM Tris-HCl, pH 8.5, 5 mM MgCl2, 4 mM DTT, 1 μM [^3H]-labeled S-adenosyl-L-methionine ([^3H]SAM, 82.0 Ci/mmol, 1.0 mCi/ml, Amersham Pharmacia Biotech) and 2 μg of substrate (histone octamers or oligonucleosomes). A constant HKMT protein concentration was tested against increasing amounts of compound dissolved in DMSO. As a control an HKMT-inhibitor assay was performed in the presence of 0.5 μl of DMSO (end concentration of DMSO in the reaction= 2%). The reaction was stopped by the addition of 6 μl 5×SDS sample buffer (60 mM Tris-HCl, pH 6.8, 25% glycerol, 2% SDS, 0.05% bromphenol blue, 14.4 mM 6-Mercaptoethanol), and the proteins were separated on a 12% SDS-polyacrylamide gel. Proteins were transferred onto an Immobilon-P membrane (Millipore) and visualized by Coomassie blue staining. The membrane was then sprayed with EN3HANCE (NEN) and exposed to Kodak XAR film overnight. […]

SET7/9 = target: T2, SET7/9 (Homo sapiens, UniProt Q8WTS6); experiment: HKMT-inhibitor (HMT) assay, SET7/9; assay type: biochemical, Mammalian; conditions: recombinant HKMT, [3H]SAM, histone octamers or oligonucleosomes, average of duplicate
T2 construct: made in house
T2 sequence (Q8WTS6 1-366): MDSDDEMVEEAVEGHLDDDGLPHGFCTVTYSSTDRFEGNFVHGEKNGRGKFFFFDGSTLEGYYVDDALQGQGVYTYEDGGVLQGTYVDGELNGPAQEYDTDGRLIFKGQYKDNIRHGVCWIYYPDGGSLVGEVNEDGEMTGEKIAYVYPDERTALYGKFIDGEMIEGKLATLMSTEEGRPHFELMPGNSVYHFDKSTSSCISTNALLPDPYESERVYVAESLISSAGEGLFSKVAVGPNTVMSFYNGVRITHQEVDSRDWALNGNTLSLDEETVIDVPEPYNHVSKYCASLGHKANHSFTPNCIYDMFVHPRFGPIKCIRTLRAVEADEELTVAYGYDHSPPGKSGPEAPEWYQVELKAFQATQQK
Method: as §1, §2

PRSET-7 = target: T3, PRSET-7 (Homo sapiens, UniProt Q9NQR1); experiment: HKMT-inhibitor (HMT) assay, PRSET-7; assay type: biochemical, Mammalian; conditions: recombinant HKMT, [3H]SAM, histone octamers or oligonucleosomes, average of duplicate
T3 construct: made in house
T3 sequence (Q9NQR1 1-393): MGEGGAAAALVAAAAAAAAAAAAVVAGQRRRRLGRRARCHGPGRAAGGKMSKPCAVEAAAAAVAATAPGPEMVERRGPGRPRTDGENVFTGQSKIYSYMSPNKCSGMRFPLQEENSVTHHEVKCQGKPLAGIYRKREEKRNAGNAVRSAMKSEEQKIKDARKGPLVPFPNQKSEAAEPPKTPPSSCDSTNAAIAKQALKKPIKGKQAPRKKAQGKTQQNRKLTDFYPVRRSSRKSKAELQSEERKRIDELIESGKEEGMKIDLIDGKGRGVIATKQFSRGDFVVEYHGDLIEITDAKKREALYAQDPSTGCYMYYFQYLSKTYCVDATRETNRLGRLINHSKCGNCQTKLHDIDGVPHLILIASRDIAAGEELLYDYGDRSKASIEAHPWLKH
Method: as §1, §2

EZH2 = target: T4, EZH2 (Homo sapiens, UniProt Q15910); experiment: HKMT-inhibitor (HMT) assay, EZH2; assay type: biochemical, Mammalian; conditions: meaning of the pair not explained
T4 construct: made in house
Method: as §1
The HKMT-inhibitor assay was as follows: In a final reaction volume of 25 μl, 50-100 ng recombinant HKMT protein was incubated at 30° C. for 60 minutes in a reaction buffer containing 50 mM Tris-HCl, pH 8.5, 5 mM MgCl2, 4 mM DTT, 1 μM [^3H]-labeled S-adenosyl-L-methionine ([^3H]SAM, 82.0 Ci/mmol, 1.0 mCi/ml, Amersham Pharmacia Biotech) and 2 μg of substrate (histone octamers or oligonucleosomes). A constant HKMT protein concentration was tested against increasing amounts of compound dissolved in DMSO. As a control an HKMT-inhibitor assay was performed in the presence of 0.5 μl of DMSO (end concentration of DMSO in the reaction= 2%). The reaction was stopped by the addition of 6 μl 5×SDS sample buffer (60 mM Tris-HCl, pH 6.8, 25% glycerol, 2% SDS, 0.05% bromphenol blue, 14.4 mM 6-Mercaptoethanol), and the proteins were separated on a 12% SDS-polyacrylamide gel. Proteins were transferred onto an Immobilon-P membrane (Millipore) and visualized by Coomassie blue staining. The membrane was then sprayed with EN3HANCE (NEN) and exposed to Kodak XAR film overnight. Coomassie blue stained histone bands were cut from the membrane and subjected to scintillation counting. All assays were performed in duplicate and the average of two experiments was used for the calculation of IC50 values. Only compounds with IC50<10 μM were selected for further experiments.

H3K27me3 = experiment: Global histone lysine methylation pattern in treated cells, immunoblot, other marks (H3K27me3); assay type: cell-based; conditions: HeLa cells, acid-extracted histones, immunoblotting
Method: (§3) Compounds that show low IC50 values for specific inhibition of single HKMTs were pre-selected for cell culture based toxicity and growth inhibition. HeLa cells were seeded in a concentration of 1×10^5 cell/ml in Dulbecco's modified Eagle medium supplemented with 10% Bovine serum, 2 mM glutamine, and penicillin-streptomycin solution. After 24 hours, the medium was supplemented with various compound concentrations. After an additional 48 hours, cells were harvested. Viable cells were stained with Trypan-Blue and counted. Based on the number of living cells treated with a compound in comparison to the cell number of cells treated with DMSO, a toxicity index was calculated for each compound.
(§4) Compounds with a low toxicity index were used for cell viability tests (FIG. 3). The cells harvested from this cell viability test were analyzed using two techniques. In the first technique, living cells were counted as described above and growth curves plotted for cells treated with DMSO or a given compound. (FIG. 4). In the second technique, histones were isolated from cells upon treatment of compounds, and their effect on global histone lysine methylation patterns was analyzed. Harvested cells were subjected to an acid extraction procedure for histones. […] Histones were resolved by SDS-PAGE, transferred to nitrocellulose, and analyzed by immunoblotting using histone-modification-state specific antibodies.

[1] = system: global histone H4 lysine 20 monomethylation (H4K20me1); experiment: Global histone lysine methylation pattern in treated cells, immunoblot, H4K20me1; assay type: cell-based; conditions: HeLa cells, acid-extracted histones, immunoblotting
Method: as §3, §4

[2] = first of two values printed as x/y, read-out: IC50 EZH2 (first value of cell)
[3] = second of two values printed as x/y, read-out: IC50 EZH2 (second value of cell)

T4 sequence (Q15910 whole entry, species assumed): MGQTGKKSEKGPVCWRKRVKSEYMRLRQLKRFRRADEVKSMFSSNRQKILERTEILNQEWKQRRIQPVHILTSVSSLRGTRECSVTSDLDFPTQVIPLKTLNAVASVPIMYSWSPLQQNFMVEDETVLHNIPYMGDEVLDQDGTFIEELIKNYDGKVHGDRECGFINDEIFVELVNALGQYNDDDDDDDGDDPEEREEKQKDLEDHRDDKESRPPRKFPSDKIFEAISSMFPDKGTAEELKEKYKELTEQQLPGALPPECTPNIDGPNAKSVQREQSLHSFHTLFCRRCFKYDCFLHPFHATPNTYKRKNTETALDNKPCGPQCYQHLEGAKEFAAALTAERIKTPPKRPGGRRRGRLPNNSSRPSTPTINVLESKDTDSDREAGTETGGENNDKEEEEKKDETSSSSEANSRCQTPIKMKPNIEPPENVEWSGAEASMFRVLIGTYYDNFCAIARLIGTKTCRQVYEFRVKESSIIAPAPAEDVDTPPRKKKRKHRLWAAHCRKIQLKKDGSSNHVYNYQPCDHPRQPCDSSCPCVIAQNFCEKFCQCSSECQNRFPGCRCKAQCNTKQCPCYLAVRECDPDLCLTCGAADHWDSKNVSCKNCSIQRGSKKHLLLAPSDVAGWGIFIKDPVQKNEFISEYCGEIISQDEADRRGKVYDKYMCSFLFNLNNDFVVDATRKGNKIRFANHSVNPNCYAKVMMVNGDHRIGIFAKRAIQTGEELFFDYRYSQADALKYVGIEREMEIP
T4 sequence (O75530 whole entry partner, species assumed): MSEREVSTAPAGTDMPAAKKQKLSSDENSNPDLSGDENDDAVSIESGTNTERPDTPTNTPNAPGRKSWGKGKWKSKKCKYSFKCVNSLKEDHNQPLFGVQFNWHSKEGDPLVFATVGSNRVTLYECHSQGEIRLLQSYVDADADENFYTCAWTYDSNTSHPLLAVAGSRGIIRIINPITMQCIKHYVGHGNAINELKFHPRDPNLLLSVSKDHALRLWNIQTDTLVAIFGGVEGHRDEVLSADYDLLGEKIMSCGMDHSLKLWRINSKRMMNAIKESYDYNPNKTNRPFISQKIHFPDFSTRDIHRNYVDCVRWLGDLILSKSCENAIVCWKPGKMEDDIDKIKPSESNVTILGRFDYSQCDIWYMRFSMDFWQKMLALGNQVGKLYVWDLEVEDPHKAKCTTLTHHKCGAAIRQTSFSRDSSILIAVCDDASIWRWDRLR
T4 sequence (Q15022 whole entry partner, species assumed): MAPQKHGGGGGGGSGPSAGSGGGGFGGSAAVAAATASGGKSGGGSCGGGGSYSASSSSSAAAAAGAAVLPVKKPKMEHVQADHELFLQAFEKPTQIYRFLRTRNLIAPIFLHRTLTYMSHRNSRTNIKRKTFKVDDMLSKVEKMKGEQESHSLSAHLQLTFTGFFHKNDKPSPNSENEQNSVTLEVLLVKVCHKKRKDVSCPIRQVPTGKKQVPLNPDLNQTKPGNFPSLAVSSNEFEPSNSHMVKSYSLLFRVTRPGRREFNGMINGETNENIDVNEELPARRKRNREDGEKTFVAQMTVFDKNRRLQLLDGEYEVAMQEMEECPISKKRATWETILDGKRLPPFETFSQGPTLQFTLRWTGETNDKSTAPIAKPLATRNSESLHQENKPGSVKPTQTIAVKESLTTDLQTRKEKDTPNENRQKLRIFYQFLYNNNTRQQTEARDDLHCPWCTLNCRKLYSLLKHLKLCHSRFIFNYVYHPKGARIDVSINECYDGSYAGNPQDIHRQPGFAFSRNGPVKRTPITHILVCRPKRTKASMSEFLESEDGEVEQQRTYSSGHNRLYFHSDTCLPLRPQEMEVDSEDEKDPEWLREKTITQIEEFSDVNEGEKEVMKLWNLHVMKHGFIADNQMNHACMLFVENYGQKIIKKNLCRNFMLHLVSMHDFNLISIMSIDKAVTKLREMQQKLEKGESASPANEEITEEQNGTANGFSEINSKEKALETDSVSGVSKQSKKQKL

Compound	IC50 (G9a) [µM]	IC50 (SET7/9) [µM]	IC50 (PRSET-7) [µM]	IC50 (EZH2; [2]) [µM]	IC50 (EZH2; [3]) [µM]	melting point	other histone methylation marks (e.g. H3K27me3) (H3K27me3)	global histone H4 lysine 20 monomethylation (H4K20me1) [1]
Nc1cc(S(=O)(=O)O)cc2cc(S(=O)(=O)O)cc(O)c12 [H-acid]	> 500	> 1380	3.8	3	> 1000			
CCOC(=O)c1cc2c3c(cccc3c1)NC(=O)O2 [Compound 6, ethyl 2,3-dihydro-2-oxonaphtho[1,8-de][1,3]oxazine-8-carboxylate]						> 250 °C (dec.)		
Cc1cc(O)c(C(C)C)cc1C1(c2cc(C(C)C)c(O)cc2C)OC(=O)c2ccccc21 [Thymolphthalein, thymolphthalein]	> 1450	> 1450	9	25	400		not affected	reproducible reduction
Nc1ccc2c(O)cc(C(=O)O)cc2c1 (as salt: hydrochloride) [Compound 1a, 7-amino-4-hydroxy-2-naphthoic acid]						> 250 °C (dec.)		
